Results from PubChem BioAssay (NCI).
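GI50 is the concentration that inhibits growth by half. At the TGI there is no net growth.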

Tests used:
Test in all cases: DTP human tumour cell line panel, 384-well format
[1] = test system: 786-0 renal
[2] = test system: A498 renal
[3] = test system: A549 NSCLC
[4] = test system: ACHN renal
[5] = test system: BT-549 breast
[6] = test system: CAKI-1 renal
[7] = test system: CCRF-CEM leukemia
[8] = test system: COLO 205 colon
[9] = test system: DU-145 prostate
[10] = test system: HCC-2998 colon
[11] = test system: HCT-116 colon
[12] = test system: HCT-15 colon
[13] = test system: HL-60(TB) leukemia
[14] = test system: HOP-62 NSCLC
[15] = test system: HOP-92 NSCLC
[16] = test system: HT29 colon
[17] = test system: IGROV1 ovarian
[18] = test system: K-562 leukemia
[19] = test system: KM12 colon
[20] = test system: LOX IMVI melanoma
[21] = test system: M14 melanoma
[22] = test system: MALME-3M melanoma
[23] = test system: MCF7 breast
[24] = test system: MDA-MB-231 breast
[25] = test system: MDA-MB-435 melanoma
[26] = test system: MDA-MB-468 breast
[27] = test system: MOLT-4 leukemia
[28] = test system: NCI-H226 lung
[29] = test system: NCI-H23 lung
[30] = test system: NCI-H322M lung
[31] = test system: NCI-H460 NSCLC
[32] = test system: NCI-H522 lung
[33] = test system: NCI/ADR-RES ovarian
[34] = test system: OVCAR-3 ovarian
[35] = test system: OVCAR-4 ovarian
[36] = test system: OVCAR-5 ovarian
[37] = test system: OVCAR-8 ovarian
[38] = test system: PC-3 prostate
[39] = test system: RPMI-8226 leukemia
[40] = test system: RXF 393 renal
[41] = test system: SF-268 CNS
[42] = test system: SF-295 CNS
[43] = test system: SF-539 CNS
[44] = test system: SK-MEL-2 melanoma
[45] = test system: SK-MEL-28 melanoma
[46] = test system: SK-MEL-5 melanoma
[47] = test system: SK-OV-3 ovarian
[48] = test system: SN12C renal
[49] = test system: SNB-19 CNS
[50] = test system: SR leukemia
[51] = test system: SW-620 colon
[52] = test system: T-47D breast
[53] = test system: TK-10 renal
[54] = test system: U251 glioblastoma
[55] = test system: UACC-257 melanoma
[56] = test system: UACC-62 melanoma
[57] = test system: UO-31 renal

SMILES: C[C@H](Nc1cc(Cl)nc2c1cnn2[C@@H]1O[C@H](COP(=O)(O)CP(=O)(O)O)[C@@H](O)[C@H]1O)c1ccccc1F
- GI50 [1]: > 100 µM
- TGI [1]: > 100 µM
- GI50 [2]: 62.1 µM
- TGI [2]: > 100 µM
- GI50 [3]: 80.5 µM
- TGI [3]: > 100 µM
- GI50 [4]: > 100 µM
- TGI [4]: > 100 µM
- GI50 [5]: 50.6 µM
- TGI [5]: > 100 µM
- GI50 [6]: > 100 µM
- TGI [6]: > 100 µM
- GI50 [7]: 42.4 µM
- TGI [7]: > 100 µM
- GI50 [8]: > 100 µM
- TGI [8]: > 100 µM
- GI50 [9]: > 100 µM
- TGI [9]: > 100 µM
- GI50 [10]: 72.9 µM
- TGI [10]: > 100 µM
- GI50 [11]: > 100 µM
- TGI [11]: > 100 µM
- GI50 [12]: > 100 µM
- TGI [12]: > 100 µM
- GI50 [13]: > 100 µM
- TGI [13]: > 100 µM
- GI50 [14]: > 100 µM
- TGI [14]: > 100 µM
- GI50 [15]: > 100 µM
- TGI [15]: > 100 µM
- GI50 [16]: > 100 µM
- TGI [16]: > 100 µM
- GI50 [17]: > 100 µM
- TGI [17]: > 100 µM
- GI50 [18]: > 100 µM
- TGI [18]: > 100 µM
- GI50 [19]: > 100 µM
- TGI [19]: > 100 µM
- GI50 [20]: > 100 µM
- TGI [20]: > 100 µM
- GI50 [21]: > 100 µM
- TGI [21]: > 100 µM
- GI50 [22]: > 100 µM
- TGI [22]: > 100 µM
- GI50 [23]: > 100 µM
- TGI [23]: > 100 µM
- GI50 [24]: > 100 µM
- TGI [24]: > 100 µM
- GI50 [25]: > 100 µM
- TGI [25]: > 100 µM
- GI50 [26]: > 100 µM
- TGI [26]: > 100 µM
- GI50 [27]: 58.8 µM
- TGI [27]: > 100 µM
- GI50 [28]: 56.6 µM
- TGI [28]: > 100 µM
- GI50 [29]: 67.3 µM
- TGI [29]: > 100 µM
- GI50 [30]: > 100 µM
- TGI [30]: > 100 µM
- GI50 [31]: > 100 µM
- TGI [31]: > 100 µM
- GI50 [32]: > 100 µM
- TGI [32]: > 100 µM
- GI50 [33]: > 100 µM
- TGI [33]: > 100 µM
- GI50 [34]: > 100 µM
- TGI [34]: > 100 µM
- GI50 [35]: 50.6 µM
- TGI [35]: > 100 µM
- GI50 [36]: > 100 µM
- TGI [36]: > 100 µM
- GI50 [37]: > 100 µM
- TGI [37]: > 100 µM
- GI50 [38]: > 100 µM
- TGI [38]: > 100 µM
- GI50 [39]: 8.19 µM
- TGI [39]: 40.9 µM
- GI50 [40]: 28.5 µM
- TGI [40]: > 100 µM
- GI50 [41]: > 100 µM
- TGI [41]: > 100 µM
- GI50 [42]: > 100 µM
- TGI [42]: > 100 µM
- GI50 [43]: 49.9 µM
- TGI [43]: > 100 µM
- GI50 [44]: 99.6 µM
- TGI [44]: > 100 µM
- GI50 [45]: > 100 µM
- TGI [45]: > 100 µM
- GI50 [46]: > 100 µM
- TGI [46]: > 100 µM
- GI50 [47]: 73.8 µM
- TGI [47]: > 100 µM
- GI50 [48]: 70.8 µM
- TGI [48]: > 100 µM
- GI50 [49]: > 100 µM
- TGI [49]: > 100 µM
- GI50 [50]: 47.9 µM
- TGI [50]: > 100 µM
- GI50 [51]: > 100 µM
- TGI [51]: > 100 µM
- GI50 [52]: 80.7 µM
- TGI [52]: > 100 µM
- GI50 [53]: > 100 µM
- TGI [53]: > 100 µM
- GI50 [54]: > 100 µM
- TGI [54]: > 100 µM
- GI50 [55]: > 100 µM
- TGI [55]: > 100 µM
- GI50 [56]: > 100 µM
- TGI [56]: > 100 µM
- GI50 [57]: > 100 µM
- TGI [57]: > 100 µM
